Results reported in patent publication US8710264B2, “Antitumoral compounds” (priority 2007, dated 2014).
In brackets after ≈: the same amount, converted by molar mass. Where two headings read alike, the source gives them in different places.

What was measured:
breast cancer carcinoma = conditions: cited from earlier work
HT29 = assay: Cytotoxicity assay, SRB colorimetric assay; assay type: cell-based; conditions: Homo sapiens; for GI50: concentration that produces 50% growth inhibition; for IC (TGI): total growth inhibition (cytostatic effect)
Text: (§1) The aim of this assay is to evaluate the in vitro cytostatic (ability to delay or arrest tumor cell growth) or cytotoxic (ability to kill tumor cells) activity of the samples being tested.
(§2) Evaluation of Cytotoxic Activity Using the SBR Colorimetric Assay
(§3) A colorimetric type of assay, using sulforhodamine B (SRB) reaction has been adapted for a quantitative measurement of cell growth and viability (following the technique described by Skehan P et al. J. Natl. Cancer Inst. 1990, 82, 1107-1112).
(§4) This form of assay employs SBS-standard 96-well cell culture microplates (Faircloth et al. Methods in Cell Science, 1988, 11(4), 201-205; Mosmann et al, Journal of Immunological. Methods, 1983, 65(1-2), 55-63). All the cell lines used in this study, derived from different types of human cancer, were obtained from the American Type Culture Collection (ATCC).
(§5) Cells were maintained in Dulbecco's Modified Eagle Medium (DMEM) supplemented with 10% Fetal Bovine Serum (FBS), 2 mM L-glutamine, 100 U/mL penicillin and 100 U/mL streptomycin at 37° C., 5% CO2 and 98% humidity. For the experiments, cells were harvested from subconfluent cultures using trypsinization and resuspended in fresh medium before counting and plating.
(§6) Cells were seeded in 96 well microtiter plates at 5×10^3 cells per well in aliquots of 150 μL, and allowed to attach to the plate surface for 18 hours in drug free medium. One control (untreated) plate of each cell line was fixed (as described below) and used for time zero reference value. Afterwards, test samples were added to the cultures in ten serial dilutions, in aliquots of 50 μL, ranging from 10 to 0.00262 μg/mL. After 48 hours exposure, the antitumor effect was estimated by the SRB method: Briefly, cells were washed twice with PBS, fixed for 15 min in 1% glutaraldehyde solution, rinsed twice in PBS, and stained in 0.4% SRB solution for 30 min at room temperature. Cells were then rinsed several times with 1% acetic acid solution and air-dried. SRB was then extracted in 10 mM trizma base solution and the absorbance measured in an automated spectrophotometric plate reader at 490 nm. Cell survival was expressed as percentage of control cell growth. The final effect of the sample being tested was estimated by applying the NCI algorithm (Boyd M R and Paull K D. Drug Dev. Res. 1995, 34, 91-104).
(§7) Using the mean±SD of triplicate cultures, a dose-response curve was automatically generated using nonlinear regression analysis. Three reference parameters were calculated (NCI algorithm) by automatic interpolation: GI50=concentration that produces 50% growth inhibition; TGI=total growth inhibition (cytostatic effect) and LC50=concentration that produces 50% net cell killing (cytotoxic effect).

A549 = assay: Cytotoxicity assay, SRB colorimetric assay; assay type: cell-based; conditions: Homo sapiens; for GI50: concentration that produces 50% growth inhibition; for LC50 (50% net cell killing): read-out: LC50; for IC (TGI): total growth inhibition (cytostatic effect)
Text: as §1, §2, §3, §4, §5, §6, §7

MDA-MB-231 = assay: Cytotoxicity assay, SRB colorimetric assay; assay type: cell-based; conditions: Homo sapiens; for GI50: concentration that produces 50% growth inhibition; for IC (TGI): total growth inhibition (cytostatic effect)
Text: as §1, §2, §3, §4, §5, §6, §7

[1] = tested on: L929 mouse fibroblast cell culture; conditions: toxicity toward L929 mouse fibroblast cell culture; cited from earlier work
Saccharomyces cerevisiae = conditions: fungus Saccharomyces cerevisiae; cited from earlier work
[2] = HT-29, HT29, 48 hours exposure, concentration that produces 50% net cell killing (cytotoxic effect), read-out: LC50 (the source's name)
[3] = A549, 48 hours exposure, concentration that produces 50% net cell killing (cytotoxic effect)
[4] = MDA-MB-231, 48 hours exposure, concentration that produces 50% net cell killing (cytotoxic effect), read-out: LC50 (the source's name)
[5] = MDA-MB-231, 48 h, read-out: LC50

SMILES: C=C/C=C\[C@H](C)[C@H](OC(N)=O)[C@@H](C)[C@H](O)[C@@H](C)C/C(C)=C\[C@H](C)[C@@H](O)[C@@H](C)/C=C\[C@@H](O)C[C@@H]1OC(=O)[C@H](C)[C@@H](O)[C@H]1C (single isomer, unassigned) [(+)-discodermolide]
- IC50 (breast cancer carcinoma): 2.4 nM

SMILES: COc1cc(/C=C(C)/C=C\C=C/C(=O)N[C@H](C(=O)N/C=C\C[C@H](C/C=C(\C)Cl)O[Si](C)(C)C(C)(C)C)C(C)(C)C)ccc1O[Si](C)(C)C(C)(C)C [Compound 30]
- GI50 (HT29; HT-29, HT29, 48 hours exposure): 777 nM
- CC50 (HT29; [2]): 869 nM
- IC (TGI) (HT29; HT-29, HT29, 48 hours exposure): 816 nM
- GI50 (A549; A549, 48 hours exposure): 671 nM
- LC50 (50% net cell killing) (A549; [3]): 908 nM
- IC (TGI) (A549; A549, 48 hours exposure): 764 nM
- GI50 (MDA-MB-231; MDA-MB-231, 48 hours exposure): 764 nM
- CC50 (MDA-MB-231; [4]): 1260 nM
- IC (TGI) (MDA-MB-231; MDA-MB-231, 48 hours exposure): 974 nM

SMILES: C/C(Cl)=C\C[C@@H](C/C=C\NC(=O)[C@@H](NC(=O)\C=C/C=C\C(C)=C\Cc1ccccc1)C(C)(C)C)O[Si](C)(C)C(C)(C)C [Compound 32]
- GI50 (HT29; HT-29, HT29, 48 hours exposure): 490 nM
- CC50 (HT29; [2]): 849 nM
- IC (TGI) (HT29; HT-29, HT29, 48 hours exposure): 621 nM
- GI50 (A549; A549, 48 hours exposure): 490 nM
- LC50 (50% net cell killing) (A549; [3]): 1060 nM
- IC (TGI) (A549; A549, 48 hours exposure): 686 nM
- GI50 (MDA-MB-231; MDA-MB-231, 48 hours exposure): 833 nM
- CC50 (MDA-MB-231; [4]): 1500 nM
- IC (TGI) (MDA-MB-231; MDA-MB-231, 48 hours exposure): 1110 nM

SMILES: C/C(Cl)=C\C[C@H](O)C/C=C\NC(=O)[C@@H](NC(=O)\C=C/C=C\C(C)=C\Cc1ccccc1)C(C)(C)C [Compound 33]
- CC50 (HT29; HT-29, 48 h, read-out: LC50): 3810 nM
- GI50 (HT29; HT-29, HT29, 48 hours exposure): 1100 nM
- IC (TGI) (HT29; HT-29, HT29, 48 hours exposure): 1820 nM
- LC50 (50% net cell killing) (A549; A549, 48 h): 7410 nM
- GI50 (A549; A549, 48 hours exposure): 1580 nM
- IC (TGI) (A549; A549, 48 hours exposure): 3410 nM
- CC50 (MDA-MB-231; [5]): 8010 nM
- GI50 (MDA-MB-231; MDA-MB-231, 48 hours exposure): 3010 nM
- IC (TGI) (MDA-MB-231; MDA-MB-231, 48 hours exposure): 4810 nM

SMILES: C/C(Cl)=C\C[C@@H](C/C=C\NC(=O)[C@@H](NC(=O)\C=C/C=C\C(C)=C\Cc1ccccc1)C(C)(C)C)OC(N)=O [Compound 34]
- CC50 (HT29; HT-29, 48 h, read-out: LC50): 904 nM
- GI50 (HT29; HT-29, HT29, 48 hours exposure): 443 nM
- IC (TGI) (HT29; HT-29, HT29, 48 hours exposure): 572 nM
- LC50 (50% net cell killing) (A549; A549, 48 h): > 18400 nM
- GI50 (A549; A549, 48 hours exposure): 701 nM
- IC (TGI) (A549; A549, 48 hours exposure): 2770 nM
- CC50 (MDA-MB-231; [5]): > 18400 nM
- GI50 (MDA-MB-231; MDA-MB-231, 48 hours exposure): 1030 nM
- IC (TGI) (MDA-MB-231; MDA-MB-231, 48 hours exposure): 4430 nM

SMILES: C=CCCOC(=O)[C@@H](NC(=O)\C=C/C=C\C(C)=C\c1ccc(O)c(OC)c1)C(C)(C)C [Compound 36]
- GI50 (HT29; HT-29, HT29, 48 hours exposure): 1960 nM
- CC50 (HT29; [2]): > 23400 nM
- IC (TGI) (HT29; HT-29, HT29, 48 hours exposure): 7950 nM
- GI50 (A549; A549, 48 hours exposure): 3270 nM
- LC50 (50% net cell killing) (A549; [3]): > 23400 nM
- IC (TGI) (A549; A549, 48 hours exposure): > 23400 nM
- GI50 (MDA-MB-231; MDA-MB-231, 48 hours exposure): 1150 nM
- CC50 (MDA-MB-231; [4]): 19200 nM
- IC (TGI) (MDA-MB-231; MDA-MB-231, 48 hours exposure): 2570 nM

SMILES: C/C(Cl)=C\C[C@@H](C/C=C\NC(=O)[C@@H](NC(=O)\C=C/C=C\C(C)=C\[C@H](C)c1ccccc1)C(C)(C)C)O[Si](C)(C)C(C)(C)C [Compound 37]
- GI50 (HT29; HT-29, HT29, 48 hours exposure): 3670 nM
- CC50 (HT29; [2]): 5900 nM
- IC (TGI) (HT29; HT-29, HT29, 48 hours exposure): 4460 nM
- GI50 (A549; A549, 48 hours exposure): 2870 nM
- LC50 (50% net cell killing) (A549; [3]): 10800 nM
- IC (TGI) (A549; A549, 48 hours exposure): 5900 nM
- GI50 (MDA-MB-231; MDA-MB-231, 48 hours exposure): 5260 nM
- CC50 (MDA-MB-231; [4]): 9400 nM
- IC (TGI) (MDA-MB-231; MDA-MB-231, 48 hours exposure): 7010 nM

SMILES: C/C(Cl)=C\C[C@H](O)C/C=C\NC(=O)[C@@H](NC(=O)\C=C/C=C\C(C)=C\[C@H](C)c1ccccc1)C(C)(C)C [Compound 38]
- CC50 (HT29; HT-29, 48 h, read-out: LC50): 4680 nM
- GI50 (HT29; HT-29, HT29, 48 hours exposure): 1090 nM
- IC (TGI) (HT29; HT-29, HT29, 48 hours exposure): 1520 nM
- LC50 (50% net cell killing) (A549; A549, 48 h): > 19500 nM
- GI50 (A549; A549, 48 hours exposure): 1810 nM
- IC (TGI) (A549; A549, 48 hours exposure): 4870 nM
- CC50 (MDA-MB-231; [5]): > 19500 nM
- GI50 (MDA-MB-231; MDA-MB-231, 48 hours exposure): 2140 nM
- IC (TGI) (MDA-MB-231; MDA-MB-231, 48 hours exposure): 4480 nM

SMILES: C/C(Cl)=C\C[C@@H](C/C=C\NC(=O)[C@@H](NC(=O)\C=C/C=C\C(C)=C\[C@H](C)c1ccccc1)C(C)(C)C)OC(N)=O [Compound 39]
- CC50 (HT29; HT-29, 48 h, read-out: LC50): 360 nM
- GI50 (HT29; HT-29, HT29, 48 hours exposure): 36 nM
- IC (TGI) (HT29; HT-29, HT29, 48 hours exposure): 59.3 nM
- LC50 (50% net cell killing) (A549; A549, 48 h): > 18000 nM
- GI50 (A549; A549, 48 hours exposure): 55.7 nM
- IC (TGI) (A549; A549, 48 hours exposure): > 18000 nM
- CC50 (MDA-MB-231; [5]): > 18000 nM
- GI50 (MDA-MB-231; MDA-MB-231, 48 hours exposure): 91.7 nM
- IC (TGI) (MDA-MB-231; MDA-MB-231, 48 hours exposure): 270 nM

SMILES: COC(=O)CNC(=O)CCC/C=C\NC(=O)/C=C(C)/C=C/[C@H](C)[C@H](OC)[C@H](C)[C@H](/C=C/c1ccccc1)OC [crocacin D]
- IC50 [1]: 0.06 µg/mL (≈ 0.111 µM)
- MIC (Saccharomyces cerevisiae): 0.0014 µg/mL (≈ 0.00259 µM)

SMILES: CC(=O)O[C@H]1C(=O)[C@@]2(C)[C@H]([C@H](OC(=O)c3ccccc3)[C@]3(O)C[C@H](OC(=O)[C@H](O)[C@@H](NC(=O)c4ccccc4)c4ccccc4)C(C)=C1C3(C)C)[C@]1(OC(C)=O)CO[C@@H]1C[C@@H]2O [paclitaxel]
- IC50 (breast cancer carcinoma): 2.1 nM
